Data from US20120005774A1, “USE OF TREHALASE TO OBTAIN DROUGHT RESISTANCE IN PLANTS” (KATHOLIEKE UNIVERSITEIT LEUVEN, K.U. LEUVEN R & D, priority 2009, published 2012).

Assays:
trehalase = target: T1, trehalase (Arabidopsis thaliana, UniProt Q9SU50); settings: cited from earlier work
T1 sequence (Q9SU50 1-626): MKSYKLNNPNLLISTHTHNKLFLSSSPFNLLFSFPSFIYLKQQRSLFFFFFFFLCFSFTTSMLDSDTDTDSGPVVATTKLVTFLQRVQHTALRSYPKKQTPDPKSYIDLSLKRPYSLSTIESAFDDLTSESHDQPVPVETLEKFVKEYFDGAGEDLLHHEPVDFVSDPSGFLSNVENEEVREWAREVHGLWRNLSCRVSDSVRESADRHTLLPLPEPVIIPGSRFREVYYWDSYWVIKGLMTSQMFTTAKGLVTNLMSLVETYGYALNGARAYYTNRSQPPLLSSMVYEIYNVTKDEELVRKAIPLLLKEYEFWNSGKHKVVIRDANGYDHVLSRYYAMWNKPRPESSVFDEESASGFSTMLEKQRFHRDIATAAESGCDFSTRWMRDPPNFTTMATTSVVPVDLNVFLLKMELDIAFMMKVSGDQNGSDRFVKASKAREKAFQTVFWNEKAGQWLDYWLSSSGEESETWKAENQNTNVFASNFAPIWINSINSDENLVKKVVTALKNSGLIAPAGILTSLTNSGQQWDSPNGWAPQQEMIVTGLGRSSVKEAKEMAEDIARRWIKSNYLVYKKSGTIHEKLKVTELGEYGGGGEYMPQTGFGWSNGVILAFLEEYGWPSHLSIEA

Arabidopsis seedlings [1] = assay: Seedling growth assay on trehalose with or without Val A; format: in vivo, Arabidopsis thaliana; settings: for sensitivity to trehalose, root length: with Val A
Description: FIG. 3: Growth phenotypes of AtTRE1 mutants on trehalose. Panel A, GT tre KO lines and wt Ler with Val A. Panel B, SA TRE OX lines and wt Col with Val A. Panel C, GT tre KO lines and wt Ler without Val A. Panel D, SA TRE OX lines and wt Col without Val A. Approximately 30 seedlings/treatment were grown on vertical plates, 1× MS without suc, in a 12 hours-12 hours day/night cycle, for 10 days with 0, 0.5, 1, 5, 10, or 25 mM trehalose. Data are means±SE.
FIG. 4: Growth phenotypes of AtTRE1 mutants on high trehalose. Seedlings grown in the same conditions as described in FIG. 3, without Val A, and with higher concentration of trehalose: 50, 100, 150, and 200 mM. Representative seedlings are shown.
Vapor-sterilized seeds were sown after a 48-hour stratification period in vertically or horizontally oriented Petri dishes on a full strength (or mentioned otherwise) Murashige and Skoog Salt Mixture including vitamins (MS) medium (4.3 g/l) with MES (0.5 g/l) and solidified with Phytagar (8 g/l) (Duchefa, Haarlem, The Netherlands). The media was enriched with sucrose/glucose (0-6%) or trehalose, depending on the tested conditions, which are specified. Val A was added in a concentration of 10 μM.
In our growth assay, no extra sugar was added to the media.

plants = settings: Val A treatment, cited from earlier work
Arabidopsis seedlings [2] = settings: absence of Val A; cited from earlier work

| Structure (SMILES) | trehalase activity (trehalase) | inhibition of trehalase activity in the OX lines (Arabidopsis seedlings [1]; Val A 10 μM, SA TRE OX lines, concluded from growth on trehalose) | phytotoxicity (plants; adult plants) | phenotypic irregularities in seedlings (plants; seedlings) | sensitivity to trehalose, root length (Arabidopsis seedlings [1]; Col wild-type plants, 10 mM trehalose) | development with increasing trehalose concentrations (Arabidopsis seedlings [1]; GT tre KO mutants versus wild-type Ler, without Val A) | sensitivity to trehalose, root length (Arabidopsis seedlings [1]; Ler wild-type plants) | resistance to higher trehalose levels (Arabidopsis seedlings [1]; SA TRE OX plants versus wild-type controls, in the presence of Val A) | sensitivity to high trehalose concentrations (Arabidopsis seedlings [1]; SA TRE OX plants versus wild-type seedlings, without Val A, up to 200 mM) | root growth and development of wild-type seedlings (Arabidopsis seedlings [1]; gradually increased trehalose (0-25 mM) in the presence of Val A 10 μM, no extra sugar, 10 days) | development of wild-type seedlings on high trehalose concentrations (Arabidopsis seedlings [2]) |
| --- | --- | --- | --- | --- | --- | --- | --- | --- | --- | --- | --- |
| OCC1=C[C@@H](N[C@H]2C[C@H](CO)[C@@H](O[C@H]3O[C@@H](CO)[C@H](O)[C@@H](O)[C@@H]3O)[C@H](O)[C@H]2O)[C@H](O)[C@@H](O)[C@@H]1O [Validamycin A] | specifically inhibits trehalase activity | not sufficient to inhibit increased trehalase activity | causes phytotoxicity | no phenotypic irregularities | – | – | – | – | – | – | – |
| OC[C@H]1O[C@H](O[C@H]2O[C@H](CO)[C@@H](O)[C@H](O)[C@H]2O)[C@H](O)[C@@H](O)[C@@H]1O [trehalose, α-D-glucopyranosyl-1,1-α-D-glucopyranoside] | – | – | – | – | more dramatic decrease in root length | significantly more affected in development | rather gradual inhibitory effect | significantly more resistant | insensitive | increased inhibition of root growth and development | arrest with development shortly after germination |
